Experimental data published in patent EP0621779B1, “INDOMETHACIN LYSINATE FOR THERAPEUTIC USE IN OPHTHALMOLOGY” (JUNG, Jean, priority 1992, dated 1993).

Experiments:
[1] = Ocular passage / ocular bioavailability after instillation of eye drops; type: in vivo
Method: Les biodisponibilités oculaires des deux formes pharmaceutiques sont équivalentes : le passage obtenu avec la solution à 0,142 % d'indométacine (du lysinate d'indométacine) est similaire à celui obtenu avec la suspension à 1 % (INDOCID®). Cette dernière constatation permet d'affirmer que le passage des collyres à travers les différentes barrières oculaires s'effectue bien par la fraction soluble et non par endocytose de microparticules.
Il faut noter également qu'au temps de prélèvement de 2 h les concentrations d'indométacine mesurées dans l'oeil traité par la solution de lysinate d'indométacine à 0,142 % d'indométacine sont supérieures à celles mesurées dans l'oeil traité par la suspension à 1 % d'indométacine; cela peut être dû à une élimination plus rapide de la forme suspension par le fluide lacrymal en raison de l'irritation oculaire provoquée par la taille des particules.
Elle augmente ensuite régulièrement pour atteindre sa valeur maximale environ 30 minutes après l'instillation (3 à 5 % de la dose instillée) et diminue finalement.

[2] = Solubility in solvents (physico-chemical characters); type: physicochemical
From the text: Les données des études spectrales (IR, UV, RNM) sont conformes à la structure définie.

[3] = Stability of the isolated salt (storage; dry heat sterilisation of the powder); type: physicochemical; settings: poudre
From the text: Dans un premier temps, la stabilité du lysinate d'indométacine en fonction de la température a été prouvée et les conditions de température et de durée utilisées pour la stérilisation ont été définis. Dans un deuxième temps, une étude microbiologique a permis de vérifier l'efficacité de la méthode.

For COc1ccc2c(c1)c(CC(=O)O)c(C)n2C(=O)c1ccc(Cl)cc1 [indométacine, reference compound], the “concentration de l'indométacine dans l'humeur aqueuse” value ([1]; 10 minutes après l'instillation) was “pratiquement nulle” and the Tmax ([1]; in vivo, topical or ocular, humeur aqueuse, read-out: time after instillation to reach valeur maximale dans l'humeur aqueuse (converted)) was roughly 30 min.
In the case of COc1ccc2c(c1)c(CC(=O)O)c(C)n2C(=O)c1ccc(Cl)cc1 [lysinate d'indométacine], the solubilité ([2]; dans l'acétone) is reported as “pratiquement insoluble”, the solubilité ([2]; dans l'acétonitrile) is reported as “totalement insoluble” and the solubilité ([2]; dans l'eau) is reported as “soluble”. For the same compound, the solubilité ([2]; dans l'éthanol) was “totalement insoluble”, the solubilité ([2]; dans l'éther) was “totalement insoluble” and the solubilité ([2]; dans le chloroforme) was “pratiquement insoluble”. The solubilité ([2]; dans le dichlorométhane) was “pratiquement insoluble”, the solubilité ([2]; dans le méthanol) was “soluble” and the “passage oculaire (biodisponibilité oculaire)” value ([1]; solution à 0,142 % d'indométacine, compared with suspension à 1 % (INDOCID®)) was “similaire”. The “concentrations d'indométacine mesurées dans l'oeil traité” value ([1]; temps de prélèvement de 2 h, solution à 0,142 % d'indométacine compared with suspension à 1 % d'indométacine) was “supérieures”, the “stabilité dans le temps” value ([3]; conditions classiques de conservation) was “stables dans le temps” and the “stabilité à la stérilisation par la chaleur sèche” value ([3]; température supérieure à 170°C) was “sans être dégradé”.
